Test results from patent EP0694535A1, “Non-peptidyl tachykinin receptor antagonists” (ELI LILLY AND COMPANY, priority 1994, dated 1996).

Target: T1, NK-1 receptor (Homo sapiens, UniProt P25103)
T1 construct: an aliquot of IM9 cells; endogenous in cells; host or cells: IM9 cells (whole cells)
Experiment: NK-1 Receptor Binding Assay (competition with labeled substance P on IM9 cells)
Details: at 10μM, inhibition of substance P binding to the NK-1 receptor, read-out: Percent Inhibition
Protocol: Radioreceptor binding assays were performed using a derivative of a previously published protocol. D.G. Payan, et al., Journal of Immunology, 133:3260-3265 (1984). In this assay an aliquot of IM9 cells (1 x 10⁶ cells/tube in […] medium supplemented with 10% fetal calf serum) was incubated with 20 pM […] substance P in the presence of increasing competitor concentrations for 45 minutes at 4°C.
The IM9 cell line is a well-characterized cell line which is readily available to the public. See. e.g., Annals of the New York Academy of Science, 190: 221-234 (1972); Nature (London), 251:443-444 (1974); Proceedings of the National Academy of Sciences (USA), 71:84-88 (1974). These cells were routinely cultured in RPMI 1640 supplemented with 50 µg/ml gentamicin sulfate and 10% fetal calf serum.
The reaction was terminated by filtration through a glass fiber filter harvesting system using filters previously soaked for 20 minutes in 0.1% polyethylenimine. Specific binding of labeled substance P was determined in the presence of 20 nM unlabeled ligand.
Column 1 provides the example number of the test antagonist compound. The next columns detail the substitution patterns of the test compound.

T1 sequence (P25103 whole entry): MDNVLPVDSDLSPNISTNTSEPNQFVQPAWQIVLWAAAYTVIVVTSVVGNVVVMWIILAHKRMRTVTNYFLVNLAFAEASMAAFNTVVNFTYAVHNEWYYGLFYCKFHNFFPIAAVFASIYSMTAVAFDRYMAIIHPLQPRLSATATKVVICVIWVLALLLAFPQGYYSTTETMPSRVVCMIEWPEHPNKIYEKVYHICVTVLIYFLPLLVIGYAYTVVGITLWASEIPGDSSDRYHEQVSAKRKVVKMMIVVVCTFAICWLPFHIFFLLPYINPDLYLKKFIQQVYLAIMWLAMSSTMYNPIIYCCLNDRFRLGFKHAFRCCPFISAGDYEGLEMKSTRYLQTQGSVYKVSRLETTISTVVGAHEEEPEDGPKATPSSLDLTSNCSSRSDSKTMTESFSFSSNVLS

Structure (SMILES)	inhibition at 10 µM [%]
COc1cc(-c2nc3ccccc3n2Cc2cccc(Cl)c2)cc(OC)c1OC [Example 40, 1-(3-chlorobenzyl)-2-(3,4,5-trimethoxyphenyl)-benzimidazole]	77
COc1cc(-c2nc3ccccc3n2Cc2ccc(Cl)cc2)cc(OC)c1OC [Example 42, 1-(4-chlorobenzyl)-2-(3,4,5-trimethoxyphenyl)-benzimidazole]	61

Same assay, conditions: concentration which inhibits fifty percent of the binding of substance P, 20 pM labeled substance P, 45 minutes at 4°C

Structure (SMILES)	IC50 [µM]
COc1cc(-c2nc3ccccc3n2Cc2ccccc2Cl)cc(OC)c1OC [Example 41, 1-(2-chlorobenzyl)-2-(3,4,5-trimethoxyphenyl)-benzimidazole]	0.815
COc1cc(-c2nc3ccccc3n2Cc2ccccc2C)cc(OC)c1OC [Example 43, 1-(2-methylbenzyl)-2-(3,4,5-trimethoxyphenyl)-benzimidazole]	0.842
COc1cc(-c2nc3ccccc3n2Cc2cccc(C)c2)cc(OC)c1OC [Example 44, 1-(3-methylbenzyl)-2-(3,4,5-trimethoxyphenyl)-benzimidazole]	2.05

Target: T2, human NK-2 receptor (Homo sapiens, UniProt P21452)
T2 construct: expressed in transfected cells; host or cells: CHO-hNK-2R cells (CHO-derived), membrane preparation
T2 sequence (P21452 1-398): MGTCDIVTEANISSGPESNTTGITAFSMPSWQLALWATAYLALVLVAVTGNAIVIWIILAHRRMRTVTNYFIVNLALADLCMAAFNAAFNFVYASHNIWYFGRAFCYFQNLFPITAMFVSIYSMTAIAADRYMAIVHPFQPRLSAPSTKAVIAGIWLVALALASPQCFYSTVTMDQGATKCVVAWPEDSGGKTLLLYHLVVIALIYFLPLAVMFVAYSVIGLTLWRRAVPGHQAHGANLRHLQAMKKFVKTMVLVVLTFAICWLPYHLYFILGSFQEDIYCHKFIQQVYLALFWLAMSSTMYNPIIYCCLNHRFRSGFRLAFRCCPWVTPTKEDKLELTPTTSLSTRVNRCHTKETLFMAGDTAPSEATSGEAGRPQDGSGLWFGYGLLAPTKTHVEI
Experiment: NK-2 Receptor Binding Assay (CHO-hNK-2R membranes, iodohistidyl-neurokinin A)
Details: inhibition of neurokinin A binding at ten micromolar, read-out: Percent Inhibition @ 10 μM
Protocol: The CHO-hNK-2R cells, a CHO-derived cell line transformed with the human NK-2 receptor, expressing about 400,000 such receptors per cell, were grown in 75 cm flasks or roller bottles in minimal essential medium (alpha modification) with 10% fetal bovine serum. The gene sequence of the human NK-2 receptor is given in N.P. Gerard, et al., Journal of Biological Chemistry, 265:20455-20462 (1990).
For preparation of membranes, 30 confluent roller bottle cultures were dissociated by washing each roller bottle with 10 ml of Dulbecco's phosphate buffered saline (PBS) without calcium and magnesium, followed by addition of 10 ml of enzyme-free cell dissociation solution (PBS-based, from Specialty Media, Inc.). After an additional 15 minutes, the dissociated cells were pooled and centrifuged at 1,000 RPM for 10 minutes in a clinical centrifuge. Membranes were prepared by homogenization of the cell pellets in 300 ml 50 mM Tris buffer, pH 7.4 with a Tekmar® homogenizer for 10-15 seconds, followed by centrifugation at 12,000 RPM (20,000 x g) for 30 minutes using a Beckman JA-14® rotor. The pellets were washed once using the above procedure. and the final pellets were resuspended in 100-120 ml 50 mM Tris buffer, pH 7.4, and 4 ml aliquots stored frozen at -70 °C. The protein concentration of this preparation was 2 mg/ml.
For the receptor binding assay, one 4-ml aliquot of the CHO-hNK-2R membrane preparation was suspended in 40 ml of assay buffer containing 50 mM Tris, pH 7.4, 3 mM manganese chloride, 0.02% bovine serum albumin (BSA) and 4 µg/ml chymostatin. A 200 µl volume of the homogenate (40 µg protein) was used per sample. The radioactive ligand was [[…]]iodohistidyl-neurokinin A (New England Nuclear, NEX-252), 2200 Ci/mmol. The ligand was prepared in assay buffer at 20 nCi per 100 µl; the final concentration in the assay was 20 pM. Non-specific binding was determined using 1 µM eledoisin. Ten concentrations of eledoisin from 0.1 to 1000 nM were used for a standard concentration-response curve.
All samples and standards were added to the incubation in 10 µl dimethylsulfoxide (DMSO) for screening (single dose) or in 5 µl DMSO for IC₅₀ determinations. The order of additions for incubation was 190 or 195 µl assay buffer, 200 µl homogenate, 10 or 5 µl sample in DMSO, 100 µl radioactive ligand. The samples were incubated 1 hr at room temperature and then filtered on a cell harvester through filters which had been presoaked for two hours in 50 mM Tris buffer, pH 7.7, containing 0.5% BSA. The filter was washed 3 times with approximately 3 ml of cold 50 mM Tris buffer, pH 7.7. The filter circles were then punched into 12 x 75 mm polystyrene tubes and counted in a gamma counter.
Table II, infra, provides a representative sample of the effectiveness as NK-2 receptor antagonists of many of the compounds of Formula I. The first column provides the Example number of the compound tested. The second column provides either the percent inhibition of neurokinin A binding when the compound is present in a ten micromolar concentration or the amount of compound (in micromolar amounts) necessary to inhibit fifty percent of the binding of neurokinin A. Those values which represent IC₅₀ values are designated by parentheses.

Structure (SMILES)	inhibition at 10 µM [%]
COc1cc(-c2nc3ccccc3n2Cc2cccc(Cl)c2)cc(OC)c1OC [Example 40, 1-(3-chlorobenzyl)-2-(3,4,5-trimethoxyphenyl)-benzimidazole]	55
COc1cc(-c2nc3ccccc3n2Cc2ccccc2Cl)cc(OC)c1OC [Example 41, 1-(2-chlorobenzyl)-2-(3,4,5-trimethoxyphenyl)-benzimidazole]	73.7
COc1cc(-c2nc3ccccc3n2Cc2ccc(Cl)cc2)cc(OC)c1OC [Example 42, 1-(4-chlorobenzyl)-2-(3,4,5-trimethoxyphenyl)-benzimidazole]	2.6
COc1cc(-c2nc3ccccc3n2Cc2ccccc2C)cc(OC)c1OC [Example 43, 1-(2-methylbenzyl)-2-(3,4,5-trimethoxyphenyl)-benzimidazole]	68.4
COc1cc(-c2nc3ccccc3n2Cc2cccc(C)c2)cc(OC)c1OC [Example 44, 1-(3-methylbenzyl)-2-(3,4,5-trimethoxyphenyl)-benzimidazole]	52.9
Cc1cccc(-c2nc3ccc(OCCN4CCCC4)cc3n2Cc2ccccc2)c1 [Example 86, 1-benzyl-2-(3-methylphenyl)-6-[2-(1-pyrrolidinyl)ethoxy]benzimidazole]	48.5
Cc1cccc(-c2nc3ccc(OCCN4CCOCC4)cc3n2Cc2ccccc2)c1 [Example 87, 1-benzyl-2-(3-methylphenyl)-6-[2-(4-morpholinyl)ethoxy]benzimidazole]	81.9
Cc1cccc(-c2nc3ccc(OCCN(C)C)cc3n2Cc2ccccc2)c1 [Example 88, 1-benzyl-2-(3-methylphenyl)-6-[2-(N,N-dimethylamino)ethoxy]benzimidazole]	31.6
Cc1cccc(-c2nc3ccc(OCCN(Cc4ccccc4)Cc4ccccc4)cc3n2Cc2ccccc2)c1 [Example 89, 1-benzyl-2-(3-methylphenyl)-6-[2-(N,N-dibenzylamino)ethoxy]benzimidazole]	24.5
CCN(CCOc1ccc2nc(-c3cccc(C)c3)n(Cc3ccccc3)c2c1)c1ccccc1 [Example 90, 1-benzyl-2-(3-methylphenyl)-6-[2-(N-phenyl-N-ethylamino)ethoxy]benzimidazole]	34
Cc1cccc(-c2nc3ccc(OCCN(C(C)C)C(C)C)cc3n2Cc2ccccc2)c1 [Example 91, 1-benzyl-2-(3-methylphenyl)-6-[2-(N,N-isopropylamino)ethoxy]benzimidazole]	60.7
Cc1cccc(-c2nc3ccc(OCCN4CCCCCC4)cc3n2Cc2ccccc2)c1 [Example 92, 1-benzyl-2-(3-methylphenyl)-6-[2-(hexamethyleneimin-1-yl)ethoxy]benzimidazole]	82.5
CCN(CC)CCOc1ccc2nc(-c3cccc(C)c3)n(Cc3ccccc3)c2c1 [Example 93, 1-benzyl-2-(3-methylphenyl)-6-[2-(N,N-diethylamino)ethoxy]benzimidazole]	42
Cc1cccc(-c2nc3ccc(OCCCN(C)C)cc3n2Cc2ccccc2)c1 [Example 94, 1-benzyl-2-(3-methylphenyl)-6-[3-(N,N-dimethylamino)propoxy]benzimidazole]	38.4
Cc1cccc(-c2nc3ccc(OCCCN4CCCCC4)cc3n2Cc2ccccc2)c1 [Example 95, 1-benzyl-2-(3-methylphenyl)-6-[3-(piperdin-1-yl)propoxy]benzimidazole]	80.4
Cc1cccc(-c2nc3ccc(OCC(C)N(C)C)cc3n2Cc2ccccc2)c1 (stereo not shown) [Example 96, 1-benzyl-2-(3-methylphenyl)-6-[2-(N,N-dimethylamino)propoxy]-benzimidazole]	34
Cc1cccc(-c2nc3ccc(OCCCCl)cc3n2Cc2ccccc2)c1 [Example 97, 1-benzyl-2-(3-methylphenyl)-6-(3-chloropropoxy)-benzimidazole]	64.4
COc1cc(-c2nc3ccc(O)cc3n2Cc2ccccc2C(F)(F)F)cc(OC)c1OC [Example 104, 1-(2-trifluoromethylbenzyl)-2-(3,4,5-trimethoxyphenyl)-6-hydroxybenzimidazole]	39.3
COc1cc(-c2nc3ccc(O)cc3n2Cc2ccccc2Br)cc(OC)c1OC [Example 114, 1-(2-bromobenzyl)-2-(3,4,5-trimethoxyphenyl)-6-hydroxybenzimidazole]	57.4
Cc1cccc(-c2nc3ccc(O)cc3n2Cc2ccccc2C(F)(F)F)c1 [Example 120, 1-(2-trifluoromethylbenzyl)-2-(3-methylphenyl)-6-hydroxybenzimidazole]	55.9

Same assay, conditions: values in parentheses, amount necessary to inhibit fifty percent of the binding of neurokinin A

Structure (SMILES)	IC50 [µM]
Cc1cccc(-c2nc3ccc(OCCCl)cc3n2Cc2ccccc2)c1 [Example 98, 1-benzyl-2-(3-methylphenyl)-6-(2-chloroethoxy)-benzimidazole]	7.24
Cc1cccc(-c2nc3ccc(OCCCN4CCOCC4)cc3n2Cc2ccccc2)c1 [Example 99, 1-benzyl-2-(3-methylphenyl)-6-[3-(morpholin-4-yl)propoxy)benzimidazole]	3.08
Cc1cccc(-c2nc3ccc(OCCCN4CCCC4)cc3n2Cc2ccccc2)c1 [Example 100, 1-benzyl-2-(3-methylphenyl)-6-[3-(pyrrolidin-1-yl)propoxy)benzimidazole]	6.8
Cc1cccc(-c2nc3ccc(OCCCN4CCCCCC4)cc3n2Cc2ccccc2)c1 [Example 101, 1-benzyl-2-(3-methylphenyl)-6-[3-(hexamethyleneimin-1-yl)propoxy)benzimidazole]	1.04
COc1cc(-c2nc3ccc(OCCN4CCCCC4)cc3n2Cc2ccccc2C(F)(F)F)cc(OC)c1OC [Example 105, 1-(2-trifluoromethylbenzyl)-2-(3,4,5-trimethoxyphenyl)-6-[2-(piperidin-1-yl)ethoxy]benzimidazole]	5.17
COc1cc(-c2nc3ccc(OCCN4CCCCC4)cc3n2Cc2ccccc2Br)cc(OC)c1OC [Example 115, 1-(2-bromobenzyl)-2-(3,4,5-trimethoxyphenyl)-6-[2-(piperidin-1-yl)ethoxy]benzimidazole]	4.29
